The subject of data set [1] is thermal nociception in rodents. Put plainly: Hot plate test, noxious thermal stimulus of 50 degrees Celsius (pilot studies). The following applies: for block of the antinociceptive effects of (2R,6R)-HNK by antagonist pretreatment: hot plate, given with (2R,6R)-HNK; for antinociceptive effects on thermal nociception (latency to lick a hind paw): 10 mg/kg i.p. for three consecutive days, hot plate 50 degrees Celsius, males, 24, 48 and 72 hours post treatment. The format is in vivo. The protocol:
In addition, pilot studies were conducted to assess the antinociceptive potential of (2R,6R)-HNK (10 mg/kg intraperitoneal (i.p.) injection administered for three consecutive days) in response to a noxious thermal stimulus of 50 degrees Celsius on the hot plate apparatus. The latency to lick a hind paw was measured in males before and after (2R,6R)-HNK treatment at 24, 48, and 72 hours post treatment.
For orientation: Hot-plate and tail-flick tests time the reaction to a heat stimulus.

Data set [2] concerns gait function. Put plainly: Forced swim test, gait function. The format is in vivo. Conditions: compared with ketamine.
Data set [3] has as its system rodent model for CRPS and postoperative pain. Conditions: cited from earlier work.
The test system of data set [4] is mice with a spinal nerve injury. Conditions: 24 hours following a single injection; cited from earlier work.
Data set [5] has as its system PTSD symptoms in patients. Conditions: cited from earlier work.
[6] abbreviates: 6 times over a 2-week period, 0.5 mg/kg 40-min infusions, treatment resistant subjects.

Each structure is given as a SMILES string.

Consider `O=C1CC[C@@]2(O)[C@H]3Cc4ccc(O)c5c4[C@@]2(CCN3CC2CC2)[C@H]1O5` [naltrexone], for which the “block of the antinociceptive effects of (2R,6R)-HNK by antagonist pretreatment” value in data set [1] is “failed to block”.
Regarding `N[C@]1(c2ccccc2Cl)CCC[C@H](O)C1=O` [(2S,6S)-HNK], the “antinociceptive effects on thermal nociception (latency to lick a hind paw)” value in data set [1] is reported as “not extended”.
Take `N[C@@]1(c2ccccc2Cl)CCC[C@@H](O)C1=O` [(2R,6R)-HNK, 2R,6R-hydroxynorketamine]: the “antinociceptive effects on thermal nociception (latency to lick a hind paw)” value in data set [1] is “long-lasting antinociceptive effects”. The “impairment of gait function” value in data set [2] is recorded as “does not impair gait function significantly”. Besides, the “persistence of analgesic effects following administration” value in data set [3] is recorded as “up to five”. The “antinociceptive effects after a single injection” value in data set [4] is on record as “Antinociceptive effects”.
Consider `CNC1(c2ccccc2Cl)CCCCC1=O` (racemic) [ketamine], for which, in data set [5] (setting [6]), the “median time to relapse after the cessation of treatment” value is recorded as 41 days and the “start of persistent remission following the first infusion” value is no less than 24 h. Also, the “persistence of resolution of PTSD symptoms before re-emergence” value in data set [5] (single dose, adults and children) was “over one”. Besides, the “patient health questionnaire score after treatment” value in data set [5] (six 1-hour infusions, mean final dose 163.83 mg, reduced from 18.5) was 9.5. Besides, in data set [5] (six 1-hour infusions, mean final dose 163.83 mg, reduced from 56.2), the “PTSD checklist for DSM-5 after treatment” value is recorded as 31.3.
In the case of `NS(=O)(=O)c1cccc2c1c([N+](=O)[O-])cc1nc(O)c(O)nc12` [NBQX], in data set [1], the “block of the antinociceptive effects of (2R,6R)-HNK by antagonist pretreatment” value is listed as “effectively block”.

The record behind these values is patent publication US20260273252A1, “GROOVED MICRONEEDLES FOR PASSIVE AND ACTIVE DRUG DELIVERY” (Trustees of Tufts College, priority 2023, published 2026).
